According to patent EP0155454A1, “Use of pirenzepine, its salts or medicaments containing pirenzepine for the treatment of colon disorders” (Dr. Karl Thomae GmbH, priority 1984, dated 1985):
Where a name gives a salt, the structure may show the parent alone. Read-outs that look alike come from different tables or passages of the source.

Key:
Darmmotilität = conditions: cited from earlier work
Dickdarmmotorik [1] = conditions: in vivo; cited from earlier work
Colon irritabile = experiment: Double-blind cross-over clinical study versus placebo in patients with Colon irritabile; format: in vivo, Patienten; conditions: for symptomfrei oder gebessert: 2 x 25 mg/Tag, 2 weeks per period, 30 Patienten
Description: Bei klinischen Untersuchungen an 30 Patienten mit dem angegebenen Beschwerdebild Colon irritabile, wobei sich trotz umfangreicher diagnostischer Maßnahmen bei keinem der Patienten ein pathologischer Befund ergab, wurde Pirenzepin-dihydrochloridmonohydrat zum Einsatz gebracht. Da es für einen möglichen Therapieerfolg bei der geschilderten Indikation keinen objektivierbaren Parameter gibt, wurde jeder Patient in Doppelblind-cross over-Technik entweder mit Pirenzepin oder mit Placebo behandelt. Die Dosierung betrug 2 x 25 mg/Tag. Der Versuchsplan ermöglichte also bei jedem Patienten einen zweimal 2-wöchigen Beobachtungszeitraum. Die geprüften Parameter waren Obstipation, Diarrhoe, Schafkotstuhl, wechselnde Stühle und Schleimabsonderung. Die Beurteilung der therapeutischen Wirkung erfolgte vor Beginn der Behandlung und nach jedem einzelnen Versuchsabschnitt. Jeder Patient erhielt einen weitgefächerten Score, um seine subjektiven Eindrücke festzuhalten. Diese Angaben wurden ausgewertet, wobei die generalisierten Befunde bezüglich der Einzelsymptomatik in der nachstehenden Tabelle aufgeführt sind: […]

Dickdarmmotorik [2] = experiment: Neostigmine-stimulated colon motility in healthy volunteers, acute intravenous pirenzepine; format: in vivo, freiwilligen Probanden
Description: Pirenzepin löst einen krankhaften Spasmus im Darmtrakt ohne den Darm zu lähmen. Um dieses zu beweisen, bzw. um zu überprüfen, ob Pirenzepin anders als Atropin die gestörten motorischen Verhältnisse zu beeinflussen in der Lage ist und sich damit von Anticholinergika, Atropin oder Atropinderivaten unterscheidet, wurde die Dickdarmmotorik bei freiwilligen Probanden mit Neostigmin stimuliert und im Akutversuch Pirenzepin intravenös in therapeutischen Dosen verabreicht. In einer zweiten Serie wurden die Druck- und Motorikverhältnisse bei Patienten mit Colon irritabile vor und nach einer oralen Therapie mit Pirenzepin geprüft. Die dabei erzielten Ergebnisse lassen sich wie folgt zusammenfassen: Im Vergleich zur basalen Untersuchungsperiode konnte unter Neostigminstimulation an gesunden Testpersonen eine signifikante Zunahme der Druckamplitude um 21 %, der Kontraktionsdauer um 76 % und ein Anstieg des Motilitätsindex um 82 % beobachtet werden.

[3] = intravenös, therapeutic doses, after Neostigmin stimulation

CN1C2CCC1CC(OC(=O)C(CO)c1ccccc1)C2 (racemic) [Atropin]
Verminderung der Darmmotilität (Darmmotilität; in vivo): eine Verminderung der Darmmotilität bewirkt
propulsive motorische Kontraktionen (Dickdarmmotorik [1]): zum Erliegen bringt

CN1CCN(CC(=O)N2c3ccccc3C(=O)Nc3cccnc32)CC1 [Gastrozepin, 5,11-Dihydro-11 [(4-methyl-piperazin-1-yl)acetyl]-6H-pyrido [2,3-b] [1,4] benzodiazpin-6-on-dihydrochloridmonohydrat]
symptomfrei oder gebessert (Colon irritabile; Symptom Diarrhoe): 84%
symptomfrei oder gebessert (Colon irritabile; Symptom Obstipation): 72%
symptomfrei oder gebessert (Colon irritabile; Symptom Schafkotstuhl): 80%
symptomfrei oder gebessert (Colon irritabile; Symptom Schleimabsonderung): 83%
symptomfrei oder gebessert (Colon irritabile; Symptom Wechselnde Stühle): 89%

CN(C)C(=O)Oc1cccc([N+](C)(C)C)c1 [Neostigmin]
Anstieg des Motilitätsindex (Dickdarmmotorik [2]; in vivo): 82%
Zunahme der Druckamplitude (Dickdarmmotorik [2]; in vivo): 21%
Zunahme der Kontraktionsdauer (Dickdarmmotorik [2]; in vivo): 76%

CN1CCN(CC(=O)N2c3ccccc3C(=O)Nc3cccnc32)CC1 [Pirenzepin, 5,11-Dihydro-11-[(4-methyl-piperazin-1-yl)-acetyl)-6H-pyrido [2,3-b] [1,4] benzodiazepin-6-on]
Abnahme der Druckamplitude (Dickdarmmotorik [2]; [3]): bis zum Ausgangsniveau
Abnahme der Kontraktionsdauer (Dickdarmmotorik [2]; [3]): bis zum Ausgangsniveau
Abnahme der propulsiven Kontraktionen (Dickdarmmotorik [2]; [3]): nicht zu registrieren
Abnahme des Motilitätsindex (Dickdarmmotorik [2]; [3]): bis zum Ausgangsniveau
Neostigmin-induzierte segmentale Kolonkontraktionen (Dickdarmmotorik [2]; summary statement): vermindert
Verminderung der Darmmotilität (Darmmotilität; therapeutische Höchstdosen): nicht sichtbar
Unterschiede zwischen der Placebogruppe und der Verumgruppe (Colon irritabile; all tested parameters): signifikante bis hochsignifikante Unterschieden zugunsten von Pirenzepin
Wirksamkeit in der Indikation Colon irritabile (Colon irritabile; overall assessment): sehr gut wirksam
